In US6372297B1, “Wood preservative oxathiazines” (Uniroyal Chemical Company, Inc., priority 1993, dated 2002):
Like-named read-outs stand apart in the source and are kept apart here.

Columns and labels:
Format in all cases: cell-based
Pseudomonas alcaligenes = experiment: Wood preservative efficacy against bacteria and yeasts, tryptose agar plates; parameters: key: 0 = growth equal to control, 1 = inhibition, 2 = no growth; conditions: 100 ppm in tryptose agar
Experimental: (§1) Compositions were prepared by dissolving the compounds shown in Table 1 in 50% ethanol and further diluting with sterile distilled water. […] After cooling, the medium was inoculated with the bacteria listed below. After sufficient growth of the untreated cultures, the compounds were evaluated using the following rating system: 0=growth equal to control 1=inhibition of growth by the compound 2=no growth under the influence of the compound. In this Table, the higher numbers are the most preferred species. Pseudomonas alcaligenes (gram neg)

Debaryomyces hansenii = experiment: as above; parameters: key: 0 = growth equal to control, 1 = inhibition, 2 = no growth
Experimental: as §1, with “Debaryomyces hansenii (yeast)” for “Pseudomonas alcaligenes (gram neg)”

Enterobacter aerogenes = experiment: as above; parameters: key: 0 = growth equal to control, 1 = inhibition, 2 = no growth
Experimental: as §1, with “Enterobacter aerogenes” for “Pseudomonas alcaligenes”

Escherichia coli = experiment: as above; parameters: key: 0 = growth equal to control, 1 = growth inhibited, 2 = no growth
Experimental: as §1, with “Escherichia coli” for “Pseudomonas alcaligenes”, “[…])” for “neg)”

Coriolus versicolor = experiment: Wood preservative efficacy against fungi, agar plate colony diameter; conditions: for Score of fungicidal activity, C. VERSICLOR: Test dosage 10 ppm, Table 6A; for Score of fungicidal activity, G. VERSICLOR: Table 6B
Experimental: (§2) Each plate was inoculated with a spore suspension or with a small piece of agar (1 mm) from the margin of an actively growing colony of the test fungus. The fungi employed are listed below. After incubation at 22° C. and 70% relative humidity during a period long enough to allow significant growth of untreated controls, the diameters of the fungus colonies were measured and scored using the following rating system: 0=free of fungal growth 1=25% of fungal growth compared to untreated 2=50% of fungal growth compared to untreated 3=75% of fungal growth compared to untreated 4=Growth equal to that of untreated The scores measured for wood preservation efficacy of the compounds of this invention are listed in Tables 6a and 6b. In these Tables, the lower numbers are the most preferred species. Coriolus versicolor

Cladosporium resinae = experiment: as above
Experimental: as §2, with “Cladosporium resinae (syn Hormonocanis resinae, Amorphotheca resinae)” for “Coriolus versicolor”

Trichoderma viride = experiment: as above
Experimental: as §2, with “Trichoderma viride” for “Coriolus versicolor”

[1] = test system: molds and blue-stain fungi; experiment: In vitro activity against molds and blue-stain fungi, poison plate assay (MIC); conditions: malt extract agar, complete inhibition
Procedure, shortened: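 Poison plate format: compound diluted in sterile water and mixed into malt extract agar, then plates inoculated with each fungus. Growth inhibition scored at each concentration to give the MIC.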

SMILES: C[S+]1CCON=C1c1ccc(Cl)cc1 (stereo not drawn) [Compound 1]
- Score of bactericidal activity, P. alcalgenes (Pseudomonas alcaligenes): 1
- Score of bactericidal activity, D. hansenii (Debaryomyces hansenii; 10 ppm in tryptose agar): 2
- Score of bactericidal activity, D. hansenii (Debaryomyces hansenii; 100 ppm in tryptose agar): 2
- Score of bactericidal activity, E. aerogenes (Enterobacter aerogenes; 100 ppm in tryptose agar): 0
- Score of bactericidal activity, E. Coli (Escherichia coli; 100 ppm in tryptose agar): 2
- Score of fungicidal activity, C. VERSICLOR (Coriolus versicolor): 0
- Score of fungicidal activity, CL RESINAE (Cladosporium resinae; Test dosage 10 ppm, Table 6A): 2 (50% of growth compared to untreated control)
- Score of fungicidal activity, T. VIRIDE (Trichoderma viride; Test dosage 10 ppm, Table 6A): 2 (50% of growth compared to untreated control)

SMILES: [O-][S+]1CCON=C1c1ccc(Cl)c(Cl)c1 (stereo not drawn) [Compound 4]
- Score of bactericidal activity, P. alcalgenes (Pseudomonas alcaligenes): 1
- Score of bactericidal activity, D. hansenii (Debaryomyces hansenii; 10 ppm in tryptose agar): 2
- Score of bactericidal activity, D. hansenii (Debaryomyces hansenii; 100 ppm in tryptose agar): 2
- Score of bactericidal activity, E. aerogenes (Enterobacter aerogenes; 100 ppm in tryptose agar): 0
- Score of bactericidal activity, E. Coli (Escherichia coli; 100 ppm in tryptose agar): 2
- Score of fungicidal activity, C. VERSICLOR (Coriolus versicolor): 0
- Score of fungicidal activity, CL RESINAE (Cladosporium resinae; Test dosage 10 ppm, Table 6A): 0
- Score of fungicidal activity, T. VIRIDE (Trichoderma viride; Test dosage 10 ppm, Table 6A): 1 (25% of growth compared to untreated control)
- MIC (ppm) against A. amstelodami [1]: 10 ppm
- MIC (ppm) against A. niger ([1]; A. niger): 2.5 ppm
- MIC (ppm) against A. pullulans ([1]; A. pullulans): 10 ppm
- MIC (ppm) against A. versicolor [1]: 5 ppm
- MIC (ppm) against C. cladosporioides ([1]; C. cladosporioides): 10 ppm
- MIC (ppm) against C. pilifera [1]: 5 ppm
- MIC (ppm) against F. solani [1]: 10 ppm
- MIC (ppm) against G. candidum ([1]; G. candidum): 25 ppm
- MIC (ppm) against P. purpurogenum [1]: 10 ppm
- MIC (ppm) against P. variotii [1]: 10 ppm
- MIC (ppm) against P. violacea [1]: 25 ppm
- MIC (ppm) against S. atra [1]: 2.5 ppm
- MIC (ppm) against S. entoxylina [1]: 10 ppm
- MIC (ppm) against T. viride ([1]; T. viride): 25 ppm
- MIC (ppm) against U. atrum [1]: 25 ppm

SMILES: CC(=O)c1ccc(C2=NOCC[S+]2[O-])cc1 (stereo not drawn) [Compound 14]
- Score of bactericidal activity, P. alcalgenes (Pseudomonas alcaligenes): 1
- Score of bactericidal activity, D. hansenii (Debaryomyces hansenii; 10 ppm in tryptose agar): 0
- Score of bactericidal activity, D. hansenii (Debaryomyces hansenii; 100 ppm in tryptose agar): 2
- Score of bactericidal activity, E. aerogenes (Enterobacter aerogenes; 100 ppm in tryptose agar): 0
- Score of bactericidal activity, E. Coli (Escherichia coli; 100 ppm in tryptose agar): 2
- Score of fungicidal activity, C. VERSICLOR (Coriolus versicolor): 2 (50% of growth compared to untreated control)
- Score of fungicidal activity, CL RESINAE (Cladosporium resinae; Test dosage 10 ppm, Table 6A): 0
- Score of fungicidal activity, T. VIRIDE (Trichoderma viride; Test dosage 10 ppm, Table 6A): 3 (75% of growth compared to untreated control)

SMILES: C[S+]1CCON=C1c1cc(Cl)cc(Cl)c1 (stereo not drawn) [Compound 19]
- Score of bactericidal activity, P. alcalgenes (Pseudomonas alcaligenes): 0
- Score of bactericidal activity, E. aerogenes (Enterobacter aerogenes; 10 ppm in tryptose agar): 0
- Score of bactericidal activity, E. aerogenes (Enterobacter aerogenes; 100 ppm in tryptose agar): 0
- Score of bactericidal activity, E. Coli (Escherichia coli; 10 ppm in tryptose agar): 0
- Score of bactericidal activity, E. Coli (Escherichia coli; 100 ppm in tryptose agar): 0
- Score of fungicidal activity, G. VERSICLOR (Coriolus versicolor; 1 ppm): 2 (50% of growth compared to untreated control)
- Score of fungicidal activity, G. VERSICLOR (Coriolus versicolor; 10 ppm): 0
- Score of fungicidal activity, CL RESINAE (Cladosporium resinae; 10 ppm, Table 6B): 0
- Score of fungicidal activity, T. VIRIDE (Trichoderma viride; 10 ppm, Table 6B): 2 (50% of growth compared to untreated control)
- MIC (ppm) against A. amstelodami [1]: 25 ppm
- MIC (ppm) against A. versicolor [1]: 25 ppm
- MIC ([1]; Aspergillus niger, A. niger, read-out: MIC (ppm) against A. niger): 2.5 µg/mL
- MIC ([1]; Aureobasidium pullulans, A. pullulans, read-out: MIC (ppm) against A. pullulans): 25 µg/mL
- MIC (ppm) against C. pilifera [1]: 10 ppm
- MIC ([1]; Cladosporium cladosporioides, C. cladosporioides, read-out: MIC (ppm) against C. cladosporioides): 25 µg/mL
- MIC (ppm) against F. solani [1]: >25 ppm
- MIC ([1]; Geotrichum candidum, G. candidum, read-out: MIC (ppm) against G. candidum): > 25 µg/mL
- MIC (ppm) against P. purpurogenum [1]: 25 ppm
- MIC (ppm) against P. variotii [1]: 25 ppm
- MIC (ppm) against P. violacea [1]: >25 ppm
- MIC (ppm) against S. atra [1]: 25 ppm
- MIC (ppm) against S. entoxylina [1]: 25 ppm
- MIC ([1]; Trichoderma viride, T. viride, read-out: MIC (ppm) against T. viride): 25 µg/mL
- MIC (ppm) against U. atrum [1]: >25 ppm

SMILES: CCOC(=O)c1ccc(C2=NOCC[S+]2[O-])cc1 (stereo not drawn) [Compound 22]
- Score of bactericidal activity, P. alcalgenes (Pseudomonas alcaligenes): 1
- Score of bactericidal activity, E. aerogenes (Enterobacter aerogenes; 10 ppm in tryptose agar): 0
- Score of bactericidal activity, E. aerogenes (Enterobacter aerogenes; 100 ppm in tryptose agar): 0
- Score of bactericidal activity, E. Coli (Escherichia coli; 10 ppm in tryptose agar): 0
- Score of bactericidal activity, E. Coli (Escherichia coli; 100 ppm in tryptose agar): 0
- Score of fungicidal activity, G. VERSICLOR (Coriolus versicolor; 10 ppm): 2 (50% of growth compared to untreated control)
- Score of fungicidal activity, CL RESINAE (Cladosporium resinae; 10 ppm, Table 6B): 4
- Score of fungicidal activity, T. VIRIDE (Trichoderma viride; 10 ppm, Table 6B): 3 (75% of growth compared to untreated control)

SMILES: C[S+]1CCON=C1c1ccc(C(F)(F)F)cc1 (stereo not drawn) [Compound 25]
- Score of bactericidal activity, P. alcalgenes (Pseudomonas alcaligenes): 1
- Score of bactericidal activity, E. aerogenes (Enterobacter aerogenes; 10 ppm in tryptose agar): 0
- Score of bactericidal activity, E. aerogenes (Enterobacter aerogenes; 100 ppm in tryptose agar): 0
- Score of bactericidal activity, E. Coli (Escherichia coli; 10 ppm in tryptose agar): 0
- Score of bactericidal activity, E. Coli (Escherichia coli; 100 ppm in tryptose agar): 0
- Score of fungicidal activity, G. VERSICLOR (Coriolus versicolor; 1 ppm): 3 (75% of growth compared to untreated control)
- Score of fungicidal activity, G. VERSICLOR (Coriolus versicolor; 10 ppm): 0
- Score of fungicidal activity, CL RESINAE (Cladosporium resinae; 10 ppm, Table 6B): 0
- Score of fungicidal activity, T. VIRIDE (Trichoderma viride; 10 ppm, Table 6B): 2 (50% of growth compared to untreated control)

SMILES: COC(=O)c1cccc(C2=NOCC[S+]2[O-])c1 (stereo not drawn) [Compound 26]
- Score of bactericidal activity, P. alcalgenes (Pseudomonas alcaligenes): 0
- Score of bactericidal activity, E. aerogenes (Enterobacter aerogenes; 10 ppm in tryptose agar): 0
- Score of bactericidal activity, E. aerogenes (Enterobacter aerogenes; 100 ppm in tryptose agar): 0
- Score of bactericidal activity, E. Coli (Escherichia coli; 10 ppm in tryptose agar): 0
- Score of bactericidal activity, E. Coli (Escherichia coli; 100 ppm in tryptose agar): 0
- Score of fungicidal activity, G. VERSICLOR (Coriolus versicolor; 10 ppm): 4
- Score of fungicidal activity, CL RESINAE (Cladosporium resinae; 10 ppm, Table 6B): 4
- Score of fungicidal activity, T. VIRIDE (Trichoderma viride; 10 ppm, Table 6B): 3 (75% of growth compared to untreated control)

SMILES: CCOc1ccc(C2=NOCC[S+]2C)cc1 (stereo not drawn) [Compound 28]
- Score of bactericidal activity, P. alcalgenes (Pseudomonas alcaligenes): 0
- Score of bactericidal activity, E. aerogenes (Enterobacter aerogenes; 10 ppm in tryptose agar): 0
- Score of bactericidal activity, E. aerogenes (Enterobacter aerogenes; 100 ppm in tryptose agar): 0
- Score of bactericidal activity, E. Coli (Escherichia coli; 10 ppm in tryptose agar): 0
- Score of bactericidal activity, E. Coli (Escherichia coli; 100 ppm in tryptose agar): 0
- Score of fungicidal activity, G. VERSICLOR (Coriolus versicolor; 10 ppm): 3 (75% of growth compared to untreated control)
- Score of fungicidal activity, CL RESINAE (Cladosporium resinae; 10 ppm, Table 6B): 4
- Score of fungicidal activity, T. VIRIDE (Trichoderma viride; 10 ppm, Table 6B): 3 (75% of growth compared to untreated control)

SMILES: O=S1(=O)CCON=C1c1cccs1 [Compound 34]
- MIC (ppm) against A. amstelodami [1]: 5 ppm
- MIC (ppm) against A. niger ([1]; A. niger): 5 ppm
- MIC (ppm) against A. pullulans ([1]; A. pullulans): 25 ppm
- MIC (ppm) against A. versicolor [1]: 5 ppm
- MIC (ppm) against C. cladosporioides ([1]; C. cladosporioides): 25 ppm
- MIC (ppm) against C. pilifera [1]: 2.5 ppm
- MIC (ppm) against F. solani [1]: 25 ppm
- MIC (ppm) against G. candidum ([1]; G. candidum): 25 ppm
- MIC (ppm) against P. purpurogenum [1]: 10 ppm
- MIC (ppm) against P. variotii [1]: 25 ppm
- MIC (ppm) against P. violacea [1]: 25 ppm
- MIC (ppm) against S. atra [1]: 5 ppm
- MIC (ppm) against S. entoxylina [1]: 5 ppm
- MIC (ppm) against T. viride ([1]; T. viride): >25 ppm
- MIC (ppm) against U. atrum [1]: 25 ppm
